# Columns and labels:
# P388 [1] = assay: Compound was studied in P388 test system for the antitumor activity expressed as percent maximum life span of animals at a dose of 100 mg/kg; assay type: functional; settings: Mus musculus
# P388 [2] = assay: Compound was studied in P388 test system for the antitumor activity expressed as number of animals survived/Number of animals tested at a dose of 100 mg/kg; 6/6; assay type: functional, Mus musculus
# P388 [3] = assay: Compound was studied in P388 test system for the antitumor activity expressed as number of animals survived/Number of animals tested at a dose of 50 mg/kg; 6/6; assay type: functional, Mus musculus
# P388 [4] = assay: Compound was studied in P388 test system for the antitumor activity expressed as percent maximum life span of animals at a dose of 50 mg/kg; assay type: functional; settings: Mus musculus
# P388 [5] = assay: Compound was studied in P388 test system for the antitumor activity expressed as number of animals survived/Number of animals tested at a dose of 200 mg/kg; 6/6; assay type: functional, Mus musculus
# P388 [6] = assay: Compound was studied in P388 test system for the antitumor activity expressed as percent maximum life span of animals at a dose of 200 mg/kg; assay type: functional; settings: Mus musculus
# P388 [7] = assay: Compound was studied in P388 test system for the antitumor activity expressed as percent maximum life span of animals at a dose of 400 mg/kg; assay type: functional; settings: Mus musculus
# P388 [8] = assay: Compound was studied in P388 test system for the antitumor activity expressed as number of animals survived/Number of animals tested at a dose of 400 mg/kg; 5/5; assay type: functional, Mus musculus
# P388 [9] = assay: Compound was studied in P388 test system for the antitumor activity expressed as number of animals survived/Number of animals tested at a dose of 100 mg/kg; 5/6; assay type: functional, Mus musculus
# L1210 [10] = assay: Compound was studied in L1210 leukemia test system for the antitumor activity expressed as percent maximum life span of animals at dose of 25 mg/kg; assay type: functional; settings: Mus musculus
# P388 [11] = assay: Compound was studied in P388 test system for the antitumor activity expressed as number of animals survived/Number of animals tested at dose of 37.5 mg/kg; 6/6; assay type: functional, Mus musculus
# P388 [12] = assay: Compound was studied in P388 test system for the antitumor activity expressed as percent maximum life span of animals at dose of 37.5 mg/kg; assay type: functional; settings: Mus musculus
# L1210 [13] = assay: Compound was studied in L1210 leukemia test system for the antitumor activity expressed as number animals survived/Number of animals tested at dose of 25 mg/kg; 5/6; assay type: functional, Mus musculus
# P388 [14] = assay: Compound was studied in P388 test system for the antitumor activity expressed as number of animals survived/Number of animals tested at dose of 50 mg/kg; 6/6; assay type: functional, Mus musculus
# L1210 [15] = assay: Compound was studied in L1210 leukemia test system for the antitumor activity expressed as number animals survived/Number of animals tested at dose of 50 mg/kg; 6/6; assay type: functional, Mus musculus
# L1210 [16] = assay: Compound was studied in L1210 leukemia test system for the antitumor activity expressed as percent maximum life span of animals at dose of 50 mg/kg; assay type: functional; settings: Mus musculus
# P388 [17] = assay: Compound was studied in P388 test system for the antitumor activity expressed as percent maximum life span of animals at dose of 25 mg/kg; assay type: functional; settings: Mus musculus
# P388 [18] = assay: Compound was studied in P388 test system for the antitumor activity expressed as number of animals survived/Number of animals tested at dose of 25 mg/kg; 6/6; assay type: functional, Mus musculus
# Mus musculus [19] = assay: Compound was studied in CD8F test system for the antitumor activity expressed as number of animals survived/Number of animals tested at dose of 25 mg/kg; 10/10
# Mus musculus [20] = assay: Compound was studied in CD8F test system for the antitumor activity expressed as percent maximum life span of animals at dose of 25 mg/kg; assay type: functional
# L1210 [21] = assay: Compound was studied in L1210 leukemia test system for the antitumor activity expressed as number animals survived/Number of animals tested at dose of 200 mg/kg; 10/10; assay type: functional, Mus musculus
# L1210 [22] = assay: Compound was studied in L1210 leukemia test system for the antitumor activity expressed as percent maximum life span of animals at dose of 200 mg/kg; assay type: functional; settings: Mus musculus
# L1210 [23] = assay: Compound was studied in L1210 leukemia test system for the antitumor activity expressed as number animals survived/Number of animals tested at dose of 200 mg/kg; 6/6; assay type: functional, Mus musculus
# [24] = system: Lewis lung carcinoma cell line; assay: Compound was studied in LL test system for the antitumor activity expressed as percent maximum life span of animals at dose of 12.5 mg/kg; assay type: functional; settings: Mus musculus
# B16 [25] = assay: Compound was studied in B16 test system for the antitumor activity expressed as number of animals survived/Number of animals tested at dose of 200 mg/kg; […]; assay type: functional, Mus musculus
# B16 [26] = assay: Compound was studied in B16 test system for the antitumor activity expressed as percent maximum life span of animals at dose of 200 mg/kg; assay type: functional; settings: Mus musculus
# Mus musculus [27] = assay: Compound was studied in CD8F test system for the antitumor activity expressed as percent maximum life span of animals at dose of 250 mg/kg; assay type: functional
# P388 [28] = assay: Compound was studied in P388 test system for the antitumor activity expressed as number of animals survived/Number of animals tested at 200 mg/kg; 6/6; assay type: functional, Mus musculus
# L1210 [29] = assay: Compound was studied in L1210 leukemia test system for the antitumor activity expressed as number animals survived/Number of animals tested at dose of 400 mg/kg; 6/6; assay type: functional, Mus musculus
# L1210 [30] = assay: Compound was studied in L1210 leukemia test system for the antitumor activity expressed as percent maximum life span of animals at dose of 400 mg/kg; assay type: functional; settings: Mus musculus
# Mus musculus [31] = assay: Compound was studied in CD8F test system for the antitumor activity expressed as number of animals survived/Number of animals tested at dose of 250 mg/kg; 10/10; assay type: functional
# [32] = system: Lewis lung carcinoma cell line; assay: Compound was studied in LL test system for the antitumor activity expressed as number of animals survived/Number of animals tested at dose of 12.5 mg/kg; 10/10; assay type: functional, Mus musculus
# P388 [33] = assay: Compound was studied in P388 test system for the antitumor activity expressed as percent maximum life span of animals; assay type: functional, Mus musculus
# P388 [34] = assay: Compound was studied in P388 test system for the antitumor activity expressed as percent maximum life span of animals at dose of 50 mg/kg; assay type: functional; settings: Mus musculus
# L1210 [35] = assay: Compound was studied in L1210 leukemia test system for the antitumor activity expressed as number of animals survived/Number of animals tested at dose of 25 mg/kg; 5/6; assay type: functional, Mus musculus
# P388 [36] = assay: Compound was studied in P388 test system for the antitumor activity expressed as number of animals survived/Number of animals tested at a dose of 200 mg/kg; 5/6; assay type: functional, Mus musculus
# P388 [37] = assay: Compound was studied in P388 test system for the antitumor activity expressed as number of animals survived/Number of animals tested at dose of 120 mg/kg; 6/6; assay type: functional, Mus musculus
# P388 [38] = assay: Compound was studied in P388 test system for the antitumor activity expressed as percent maximum life span of animals at dose of 120 mg/kg; assay type: functional; settings: Mus musculus
# L1210 [39] = assay: Compound was studied in L1210 leukemia test system for the antitumor activity expressed as percent maximum life span of animals at dose of 22.5 mg/kg; assay type: functional; settings: Mus musculus
# L1210 [40] = assay: Compound was studied in L1210 leukemia test system for the antitumor activity expressed as number of animals survived/Number of animals tested at dose of 22.5 mg/kg; 6/6; assay type: functional, Mus musculus
smiles,measurement,setting,value
CC(C)=C(C)OS(=O)(=O)C(F)(F)F,ILS at 100 mg/kg,P388 [1],14%
same,Ratio,P388 [2],6
CC(C)=COS(=O)(=O)C(F)(F)F,Ratio,P388 [3],6
same,ILS at 50 mg/kg,P388 [4],-1%
CC(C)=CO[Si](C)(C)C,Ratio,P388 [5],6
same,ILS at 200 mg/kg,P388 [6],14%
O=S(=O)(OC1=CCCCCC1)C(F)(F)F,ILS at 400 mg/kg,P388 [7],15%
same,Ratio,P388 [8],5
C[Si](C)(C)OC=C1CCCCC1,ILS at 100 mg/kg,P388 [1],22%
same,Ratio,P388 [2],6
O=S(=O)(OC(=C(c1ccccc1)c1ccccc1)c1ccccc1)C(F)(F)F,ILS at 100 mg/kg,P388 [1],16%
same,Ratio,P388 [2],6
C/C(=C\O[Si](C)(C)C)c1ccccc1,ILS at 100 mg/kg,P388 [1],8%
same,Ratio,P388 [9],5
O=C1OCC/C1=C\OS(=O)(=O)C(F)(F)F,ILS at 25 mg/kg,L1210 [10],6%
same,Ratio,P388 [11],6
same,ILS at 37.5 mg/kg,P388 [12],26%
same,Ratio,L1210 [13],5
CCOC1=CC(=O)/C(=C/O[Si](C)(C)C)CC1,Ratio,P388 [14],6
CC1(C)CC(=O)C=C(OS(=O)(=O)C(F)(F)F)C1,Ratio,L1210 [15],6
same,ILS at 50 mg/kg,L1210 [16],3%
same,ILS at 25 mg/kg,P388 [17],12%
same,Ratio,P388 [18],6
C[Si](C)(C)O/C=C1\CCCCC1=O,Ratio,Mus musculus [19],1
same,ILS at 25 mg/kg,Mus musculus [20],21%
same,Ratio,L1210 [21],10
same,ILS at 200 mg/kg,L1210 [22],5%
same,Ratio,P388 [14],6
O=S(=O)(OC1=CCCCC1)C(F)(F)F,Ratio,P388 [3],6
same,ILS at 50 mg/kg,P388 [4],14%
O=C1O[C@@H]2CCCCC2/C1=C/OS(=O)(=O)C(F)(F)F (stereo partly specified),Ratio,L1210 [23],6
same,ILS at 200 mg/kg,L1210 [22],17%
C[Si](C)(C)O/C=C1\CCOC1=O,ILS at 12.5 mg/kg,[24],16%
same,Ratio,B16 [25],10
same,ILS at 200 mg/kg,B16 [26],6%
same,ILS at 250 mg/kg,Mus musculus [27],42%
same,Ratio,P388 [28],6
same,Ratio,L1210 [29],6
same,ILS at 400 mg/kg,L1210 [30],12%
same,Ratio,Mus musculus [31],10
same,Ratio,[32],10
same,ILS,P388 [33],25%
CS(=O)(=O)O/C=C1\CCOC1=O,ILS at 50 mg/kg,P388 [34],32%
same,Ratio,L1210 [35],5
same,ILS at 25 mg/kg,L1210 [10],6%
same,Ratio,P388 [14],6
O=S(=O)(OC=C1CCCCC1)C(F)(F)F,Ratio,P388 [36],5
same,ILS at 200 mg/kg,P388 [6],12%
CS(=O)(=O)O/C=C1\C(=O)O[C@@H]2CCCCC12 (stereo partly specified),Ratio,P388 [37],6
same,ILS at 120 mg/kg,P388 [38],25%
same,ILS at 22.5 mg/kg,L1210 [39],11%
same,Ratio,L1210 [40],6
O=S(=O)(O/C1=C/CCCCCC1)C(F)(F)F,Ratio,P388 [36],5
same,ILS at 100 mg/kg,P388 [1],13%
same,ILS at 200 mg/kg,P388 [6],14%
same,Ratio,P388 [2],6

# Source: ChEMBL document CHEMBL1121820, “Synthesis and antitumor activity of simple vinyl and alpha-methylene-gamma-butyrolactone sulfonate esters and silyl enol ethers” (1981)
